Results from patent US20120029190A1, “COMPOUNDS FOR TREATING DISORDERS MEDIATED BY METABOTROPIC GLUTAMATE RECEPTOR 5, AND METHODS OF USE THEREOF” (priority 2009, published 2012).

Biological target: T1, human recombinant mGluR5 receptor (Homo sapiens, UniProt P41594)
T1 construct: expressed in transfected cells; expression induced with doxycycline
Experiment: mGluR5 in vitro functional assay (aequorin cell line, inhibition of glutamate EC80 response)
Format: cell-based
Conditions: Table 2; aequorin cell line expressing human mGluR5, reference agonist glutamate at EC80; obtained in duplicate; read-out: IC50
How it was run: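 Doxycycline-induced (600 ng/mL, 18 h) aequorin cells loaded with coelenterazine h ≥4 h at room temperature; compound preincubated 3 min before glutamate at EC80. Luminescence recorded, normalized to digitonin or 20 mM ATP wells; % inhibition of EC80 response fitted by sigmoidal nonlinear regression.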

T1 sequence (P41594 21-1212): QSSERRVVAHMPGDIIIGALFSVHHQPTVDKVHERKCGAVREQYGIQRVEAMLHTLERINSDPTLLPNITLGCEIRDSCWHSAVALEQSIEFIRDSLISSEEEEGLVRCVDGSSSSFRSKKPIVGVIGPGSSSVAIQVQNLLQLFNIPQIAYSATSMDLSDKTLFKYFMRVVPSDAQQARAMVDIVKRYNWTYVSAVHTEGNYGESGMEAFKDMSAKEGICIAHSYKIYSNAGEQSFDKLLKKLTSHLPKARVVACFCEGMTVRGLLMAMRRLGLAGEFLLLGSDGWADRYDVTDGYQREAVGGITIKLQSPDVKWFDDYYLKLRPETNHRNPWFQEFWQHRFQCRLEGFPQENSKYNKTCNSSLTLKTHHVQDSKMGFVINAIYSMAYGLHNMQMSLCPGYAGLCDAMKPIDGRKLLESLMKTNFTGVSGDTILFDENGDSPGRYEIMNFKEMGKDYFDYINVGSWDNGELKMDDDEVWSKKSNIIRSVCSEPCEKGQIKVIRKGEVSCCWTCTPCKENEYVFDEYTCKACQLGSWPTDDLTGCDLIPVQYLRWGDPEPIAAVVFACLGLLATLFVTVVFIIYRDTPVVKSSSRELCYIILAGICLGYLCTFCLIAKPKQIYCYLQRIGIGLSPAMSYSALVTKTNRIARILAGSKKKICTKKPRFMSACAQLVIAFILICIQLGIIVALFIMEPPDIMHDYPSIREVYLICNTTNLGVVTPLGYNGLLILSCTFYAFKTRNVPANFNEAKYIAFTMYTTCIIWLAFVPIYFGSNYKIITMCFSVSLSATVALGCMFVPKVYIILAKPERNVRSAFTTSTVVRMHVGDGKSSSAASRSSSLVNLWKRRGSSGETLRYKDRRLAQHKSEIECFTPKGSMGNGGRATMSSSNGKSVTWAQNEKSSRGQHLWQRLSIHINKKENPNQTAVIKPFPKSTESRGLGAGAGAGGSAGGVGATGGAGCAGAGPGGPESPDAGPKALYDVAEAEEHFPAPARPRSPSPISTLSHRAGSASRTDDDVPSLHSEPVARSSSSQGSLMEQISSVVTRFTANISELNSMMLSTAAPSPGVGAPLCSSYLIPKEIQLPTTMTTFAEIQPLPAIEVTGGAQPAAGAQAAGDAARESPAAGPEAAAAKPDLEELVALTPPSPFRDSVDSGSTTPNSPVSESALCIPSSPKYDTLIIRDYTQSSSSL

Row | Structure (SMILES) | IC50 [nM]
1 | Fc1ccc(N2CCCc3oc(-c4ncccn4)nc3C2)cc1Cl [Compound 204, 5-(3-Chloro-4-fluorophenyl)-2-(pyrimidin-2-yl)-5,6,7,8-tetrahydro-4H-oxazolo[4,5-c]azepine] | > 10000
2 | N#Cc1cc(F)cc(N2CCCc3oc(-c4cncnc4)nc3C2)c1 [Compound 206, 3-Fluoro-5-(2-(pyrimidin-5-yl)-7,8-dihydro-4H-oxazolo[4,5-c]azepin-5(6H)-yl)benzonitrile] | > 10000
3 | Cc1nc(-c2nc3c(o2)CCCN(c2ccccn2)C3)cs1 [Compound 207, 2-(2-Methylthiazol-4-yl)-5-(pyridin-2-yl)-5,6,7,8-tetrahydro-4H-oxazolo[4,5-c]azepine] | < 10000
4 | Cc1nc(N2CCCc3oc(-c4ccccn4)nc3C2)cs1 [Compound 208, 5-(2-Methylthiazol-4-yl)-2-(pyridin-2-yl)-5,6,7,8-tetrahydro-4H-oxazolo[4,5-c]azepine] | > 10000
5 | N#Cc1cc(N2CCCc3oc(-c4ccccn4)nc3C2)cc(F)c1F [Compound 216, 2,3-Difluoro-5-(2-(pyridin-2-yl)-7,8-dihydro-4H-oxazolo[4,5-c]azepin-5(6H)-yl)benzonitrile] | < 1000
6 | COc1c(F)cc(N2CCCc3oc(-c4ccccn4)nc3C2)cc1C#N [Compound 217, 3-Fluoro-2-methoxy-5-(2-(pyridin-2-yl)-7,8-dihydro-4H-oxazolo[4,5-c]azepin-5(6H)-yl)benzonitrile] | < 1000
7 | N#Cc1cc(N2CCCc3oc(-c4ccccn4)nc3C2)cc(F)c1O [Compound 218, 3-Fluoro-2-hydroxy-5-(2-(pyridin-2-yl)-7,8-dihydro-4H-oxazolo[4,5-c]azepin-5(6H)-yl)benzonitrile] | < 10000
8 | N#Cc1cc(F)cc(C2CCc3oc(-c4ccccn4)nc3C2)c1 (stereo not drawn) [Compound 222, 3-Fluoro-5-(2-(pyridin-2-yl)-4,5,6,7-tetrahydrobenzo[d]oxazol-5-yl)benzonitrile] | < 1000

More lines, now with the values ahead:

Row | IC50 [nM] | Structure (SMILES)
9 | < 1000 | Fc1cc(Cl)cc(N2CCCc3oc(-c4ncccn4)nc3C2)c1 [Compound 202, 5-(3-Chloro-5-fluorophenyl)-2-(pyrimidin-2-yl)-5,6,7,8-tetrahydro-4H-oxazolo[4,5-c]azepine]
10 | < 1000 | N#Cc1cc(F)cc(N2CCCc3oc(-c4ncccn4)nc3C2)c1 [Compound 203, 3-Fluoro-5-(2-(pyrimidin-2-yl)-7,8-dihydro-4H-oxazolo[4,5-c]azepin-5(6H)-yl)benzonitrile]
11 | < 1000 | Fc1ccc(-c2nc3c(o2)CCCN(c2cc(F)cc(Cl)c2)C3)nc1 [Compound 205, 5-(3-Chloro-5-fluorophenyl)-2-(5-fluoropyridin-2-yl)-5,6,7,8-tetrahydro-4H-oxazolo[4,5-c]azepine]
12 | < 1000 | Clc1cc(Cl)cc(N2CCCc3oc(-c4ccccn4)nc3C2)c1 [Compound 209, 5-(3,5-Dichlorophenyl)-2-(pyridin-2-yl)-5,6,7,8-tetrahydro-4H-oxazolo[4,5-c]azepine]
13 | < 1000 | [2H]c1c(F)c([2H])c(N2CCCc3oc(-c4ccccn4)nc3C2)c([2H])c1C#N [Compound 210, 2,4,6-d3-3-Fluoro-5-(2-(pyridin-2-yl)-7,8-dihydro-4H-oxazolo[4,5-c]azepin-5(6H)-yl)benzonitrile]
14 | < 1000 | Clc1ccccc1N1CCCc2oc(-c3ccccn3)nc2C1 [Compound 211, 5-(2-Chlorophenyl)-2-(pyridin-2-yl)-5,6,7,8-tetrahydro-4H-oxazolo[4,5-c]azepine]
15 | < 1000 | Clc1ccc(N2CCCc3oc(-c4ccccn4)nc3C2)cc1 [Compound 212, 5-(4-Chlorophenyl)-2-(pyridin-2-yl)-5,6,7,8-tetrahydro-4H-oxazolo[4,5-c]azepine]
16 | < 1000 | COc1cc(C#N)cc(N2CCCc3oc(-c4ccccn4)nc3C2)c1 [Compound 213, 3-Methoxy-5-(2-(pyridin-2-yl)-7,8-dihydro-4H-oxazolo[4,5-c]azepin-5(6H)-yl)benzonitrile]
17 | < 1000 | N#Cc1cc(O)cc(N2CCCc3oc(-c4ccccn4)nc3C2)c1 [Compound 214, 3-Hydroxy-5-(2-(pyridin-2-yl)-7,8-dihydro-4H-oxazolo[4,5-c]azepin-5(6H)-yl)benzonitrile]
18 | < 1000 | CC1CCN(c2cc(F)cc(C#N)c2)Cc2nc(-c3ccccn3)oc21 (stereo not drawn) [Compound 215, 3-Fluoro-5-(8-methyl-2-(pyridin-2-yl)-7,8-dihydro-4H-oxazolo[4,5-c]azepin-5(6H)-yl)benzonitrile]
